In one series the test system is A498 cells. Put plainly: EA-mediated A498 cytotoxicity (WST-1 cell viability assay). It is filed as cell-based. Particulars: AC1903 100 μM; 100 nM EA; 8 h. As for the experimental part: Cell viability assays were carried out using WST-1 Cell Proliferation Reagent (Merck). A498 cells were plated onto clear 96-well plates at 4000 cells per well and left to adhere for 24 h. Media was then removed, and replaced with fresh media containing 100 nM EA, in presence of either DMSO or 0.1 to 100 μM AC1903. Control wells were treated with vehicle (DMSO) only. To exclude any potential cytotoxic effects of AC1903 itself, cells were incubated with 0.1 to 100 μM AC1903 in absence of EA. Cells were treated in triplicate. Cells were incubated with compounds for 8 h. After 8 h, treatment media was removed and media containing WST-1 reagent (10 μl reagent +100 μl media per well) was added to each well and incubated for 1.5 h at 37 °C. Blank wells contained media and WST-1 reagent (no cells). […] Absorbance was then read at 440 nm and 650 nm (reference wavelength). To analyze data, the value of the 650 nm was subtracted from that of the 440 nm reading. Values across triplicate wells were averaged, and the value from the blank wells subtracted to account for background absorbance. […]
Inhibition of G418-induced premature stop codon readthrough
A498 cytotoxicity . […] Cell viability was calculated as % of control, and the effect of AC1903 was compared to control (0 µM ) (scatter plots showing data from three independent experiments; bars represent mean ± SD; n = 3). […]

The test system of series [1] is DMS-114 cells (TP53 R213X). As to the kind of experiment: G418-induced PTC readthrough (full-length p53, capillary electrophoresis Western) in DMS-114 cells. It is filed as cell-based, human. To be noted: for reduction of PTC readthrough compared with G418 alone: then 400 μg/ml G418 (Fig. 2A). The text has this:
(§1) Variation in PTC readthrough response has been reported among individuals or cell lines with different nonsense mutations. Although this in part highlights the importance of the stop codon and its surrounding sequence as well as the physical location of the nonsense mutation in the mRNA sequence, understanding the contribution of other underlying genetic variations becomes more complicated. To rule out the effect of the sequence and position of nonsense mutations on response variation to potential PTC readthrough modulators, we studied two cancer cell lines, DMS-114 and TC-71, with identical homozygous nonsense mutation R213X in their TP53 gene. […] To find out whether the reduced response to G418 in TC-71 cells was associated with lower intracellular levels of G418, we measured concentrations of G418 in both cell lines at 0, 8 and 24 h post exposure to G418 (100 μg/ml).
Figure 1 Effect of TRPC inhibitors on G418 induced PTC readthrough. A, DMS-114 and TC-71 cell lines with homozygous TP53 nonsense mutation (R213X) were exposed to indicated concentrations of G418 for 24 h and p53 levels (full-length, FL-p53; truncated, TR-p53) were measured. B, 100 μg/ml G418 was added to DMS-114 and TC-71 cells and its total intracellular levels were measured at indicated time points (n = 5; data normalized to the highest response in each experiment; bars represent mean ± SD). C, DMS-114 cells were preincubated with indicated concentrations of TRPC inhibitors GFB-8438 (GFB), SAR7334 (SAR), SKF96365 (SKF), 2-APB, or AC1903 for 3 h followed by exposure to 400 μg/ml G418 for another 3 h. At 24 h cell lysates were prepared and p53 levels were measured. In panels A and C, protein levels were measured by automated capillary electrophoresis Western analysis (using vinculin and GAPDH as loading controls). Samples of cell lysates containing equal amounts of total protein were loaded in all capillaries and FL-p53 levels were expressed relative to the amount of FL-p53 in untreated cells. ∗ indicates statistically significant difference between samples according to two-way ANOVA (p < 0.05). PTC, premature termination codon; TRPC, transient receptor potential canonical.
To further investigate AC1903 as a suppressor of G418-induced PTC readthrough, we exposed DMS-114 and TC-71 cells to various concentrations of AC1903 for 3 h prior to exposure to 400 μg/ml G418 for another 3 h, followed by media replacement and incubation for another 18 h.
Figure 2 Effect of AC1903 on PTC readthrough and G418 trafficking.A and B, DMS-114 (A) or TC-71 (B) cells were pretreated with indicated concentrations of AC1903 for 3 h followed by exposure to 400 μg/ml G418. After 3 h medium was replenished and at 24 h cell lysates were prepared and p53 levels were measured. C and E, DMS-114 (C) or JEB01 (E) cells were either left untreated or pretreated with 150 μM AC1903 for 3 h followed by exposure to indicated concentrations of G418 for another 3 h. At 24 h cell lysates were prepared and p53 (C) or Collagen XVII (E) levels were measured. In panels A–C, protein levels were measured by automated capillary electrophoresis Western analysis (using vinculin as loading control). In panel E, protein levels were measured by Western blot (using beta-actin as loading control). Samples of cell lysates containing equal amounts of total protein were loaded in all capillaries and FL-p53 or Collagen XVII levels were expressed relative to their respective amounts in untreated cells. D, total intracellular levels of G418 were measured in the same lysates as in (C) (n = 5; data normalized to the highest response in each experiment; bars represent mean ± SD). F, total intracellular levels of G418 were measured in the same lysates as in (E) (n = 2; data normalized to the highest response in each experiment; bars represent mean ± SD). ∗ indicates statistically significant difference between samples according to one-way ANOVA (p < 0.05). PTC, premature termination codon. […]

The next series has as its system TC-71 cells (TP53 R213X). As to the kind of experiment: G418-induced PTC readthrough (full-length p53, capillary electrophoresis Western) in TC-71 cells. It is filed as cell-based. Particulars: without G418.
Excerpt: as §1
Figure 1 Effect of TRPC inhibitors on G418 induced PTC readthrough. A, DMS-114 and TC-71 cell lines with homozygous TP53 nonsense mutation (R213X) were exposed to indicated concentrations of G418 for 24 h and p53 levels (full-length, FL-p53; truncated, TR-p53) were measured. B, 100 μg/ml G418 was added to DMS-114 and TC-71 cells and its total intracellular levels were measured at indicated time points (n = 5; data normalized to the highest response in each experiment; bars represent mean ± SD). […]

One molecule from article PMC8808171, “Nonselective TRPC channel inhibition and suppression of aminoglycoside-induced premature termination codon readthrough by the small molecule AC1903” (The Journal of Biological Chemistry, 2022) can be followed below.

Entries after “also recorded” stand apart in the source; their conditions may differ.

As for `c1ccc(Cn2c(NCc3ccco3)nc3ccccc32)cc1` [AC1903], the “effect on EA-mediated A498 cytotoxicity” value in the series with A498 cells is reported as “inhibits EA-mediated; also recorded: inhibited EA-mediated A498 cytotoxicity”. Besides, the “effect on G418-induced PTC readthrough” value in series [1] (150 μM AC1903 3 h, then 400 μg/ml G418 (Fig. S12)) is recorded as “strongly reduced”. In addition, the “reduction of PTC readthrough compared with G418 alone” value in series [1] (AC1903 50 μM 3 h) amounted to 20%; in series [1] (AC1903 150 μM 3 h) it was 74%. The “suppression of G418-induced PTC readthrough” value in series [1] (AC1903 50 μM, 400 μg/ml G418 (Fig. 1C)) is recorded as roughly 27%. In series [1] (pretreatment 150 μM AC1903, increasing concentrations of G418 (Fig. 2C)), the “decrease in full-length p53” value is roughly 70%. Moreover, the “effect on PTC readthrough of AC1903 alone” value (in series [1] (without G418); in the series on TC-71 cells (TP53 R213X)) was “did not affect PTC readthrough” in each case.
